# Patent US8486943B2, “Tetrahydrocyclopenta[b]indole androgen receptor modulators” (Eli Lilly and Company, priority 2008, dated 2013)
# Read-outs that look alike come from different tables or passages of the source.
# How the values were obtained:
# [1] = target: T1, human androgen receptor (AR) (Homo sapiens, UniProt P10275); assay: C2C12 AR/ARE reporter assay; format: cell-based
# T1 construct: expressed in transfected cells; host or cells: mouse myoblast C2C12 cells, transient co-transfection with Fugene
# T1 sequence (P10275 1-920): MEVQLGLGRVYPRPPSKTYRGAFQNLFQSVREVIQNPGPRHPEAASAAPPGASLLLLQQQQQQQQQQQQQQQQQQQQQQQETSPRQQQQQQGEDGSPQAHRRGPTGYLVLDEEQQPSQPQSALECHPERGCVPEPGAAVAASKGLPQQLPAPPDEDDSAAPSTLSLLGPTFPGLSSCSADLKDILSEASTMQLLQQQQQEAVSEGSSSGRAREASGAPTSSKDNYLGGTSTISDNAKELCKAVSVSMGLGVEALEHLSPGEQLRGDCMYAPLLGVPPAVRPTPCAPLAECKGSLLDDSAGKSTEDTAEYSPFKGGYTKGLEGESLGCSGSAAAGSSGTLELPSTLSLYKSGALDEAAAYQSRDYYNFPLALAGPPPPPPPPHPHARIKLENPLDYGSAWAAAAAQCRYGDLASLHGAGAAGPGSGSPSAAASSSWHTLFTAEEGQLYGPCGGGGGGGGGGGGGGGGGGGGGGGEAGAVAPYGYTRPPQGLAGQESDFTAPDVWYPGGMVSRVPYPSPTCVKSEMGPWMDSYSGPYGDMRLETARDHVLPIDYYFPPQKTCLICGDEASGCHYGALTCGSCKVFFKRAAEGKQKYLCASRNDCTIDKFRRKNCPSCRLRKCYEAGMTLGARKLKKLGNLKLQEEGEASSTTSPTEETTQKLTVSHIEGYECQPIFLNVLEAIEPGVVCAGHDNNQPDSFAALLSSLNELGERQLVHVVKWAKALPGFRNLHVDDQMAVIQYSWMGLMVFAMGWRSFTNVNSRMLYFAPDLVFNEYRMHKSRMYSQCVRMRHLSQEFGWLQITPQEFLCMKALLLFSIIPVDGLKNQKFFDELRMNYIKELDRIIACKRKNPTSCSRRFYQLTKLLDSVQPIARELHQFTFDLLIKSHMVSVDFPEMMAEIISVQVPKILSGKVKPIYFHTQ
# Method: As an indicator of agonist activity in muscle tissue, the C2C12 AR/ARE reporter assay is performed. Briefly, mouse myoblast C2C12 cells are co-transfected using Fugene™ reagent. A reporter plasmid containing a GRE/ARE (glucocorticoid response element/androgen response element) and TK promoter upstream of the luciferase reporter cDNA, is transfected with a plasmid constitutively expressing human androgen receptor (AR) using viral CMV promoter. Cells are transfected in T150 cm^2 flasks in DMEM media with 4% charcoal stripped Fetal Bovine Serum (FBS). After a 5 hour incubation, transfected cells are trypsinized, plated in 96 well dishes in DMEM media containing 4% charcoal-stripped FBS, incubated for 2 h and then exposed to various concentrations of test compounds ranging from about 0.01 nM to 10 μM. After 48 h of incubations with compounds, cells are lysed and luciferase activity is determined by standard techniques. Data is fit to a 4 parameter-fit logistics to determine EC50 values. The % efficacy is determined versus maximum stimulation obtained with 10 nM methyltrienolone.
# [2] = target: T2, human AR (androgen receptor) (Homo sapiens, UniProt P10275); assay: Steroid hormone nuclear receptor binding assay (AR binding)
# T2 construct: expressed in transfected cells; host or cells: HEK293 cells (lysate, '293-AR lysate')
# T2 sequence (P10275 1-920): T1 sequence (P10275 1-920)
# Method: Cell lysates from human embryonic kidney HEK293 cells overexpressing human MR (mineralocorticoid receptor), GR (glucocorticoid receptor), AR (androgen receptor), or PR (progesterone receptor) are used for receptor-ligand competition binding assays to determine Ki values. Typical procedures are provided below
# Briefly, steroid receptor competition binding assays are run in a buffer containing 20 mM HEPES buffer (pH=7.6), 0.2 mM EDTA, 75 mM NaCl, 1.5 mM MgCl2, 20% glycerol, 20 mM sodium molybdate, 0.2 mM DTT (dithiothreitol), 20 μg/mL aprotinin and 20 μg/mL leupeptin (assay buffer). […] Assays are typically run in 96-well format. Competing test compounds are added at various concentrations ranging from about 0.01 nM to 10 μM. Non-specific binding is determined in the presence of 500 nM aldosterone for MR binding, 500 nM dexamethasone for GR binding, or 500 nM methyltrienolone for AR and PR binding. […] Plates are mixed for 8 minutes on an orbital shaker at 4° C. The plates are then centrifuged at 3,000 rpm at 4° C. for 10 minutes. An aliquot of 120 μL of the binding reaction mixture is then transferred to another 96-well plate and 175 μL of Wallac Optiphase Hisafe 3™ scintillation fluid is added to each well. Plates are sealed and shaken vigorously on an orbital shaker. After an incubation of 2 hours, plates are read in a Wallac Microbeta counter.
# The Kd for [^3H]-aldosterone for MR binding, [^3H]-dexamethasone for GR binding, [^3H]-methyltrienolone for AR binding, or [^3H]-methyltrienolone for PR binding, is determined by saturation binding. The IC50 values for compounds are converted to Ki using the Cheng-Prusoff equation.
# [3] = system: castrated (GDX) male Sprague Dawley rats; assay: Model of Efficacy and Selectivity (castrated rats, tissue wet weights); format: in vivo, rat; settings: eight week treatment; for mean LA wet weight / mean bulbocavernous wet weight / mean prostate wet weight: oral daily
# Method: Male Sprague Dawley rats (24 weeks old) are castrated (gonadectomized or “GDX”) according to approved procedures and allowed to waste for eight weeks. Age-matched sham-operated […] are also prepared Animals are housed in a temperature-controlled room (24° C.) with a reversed 12 hour light/dark cycle and water and food are available ad libitum.
# Animals are randomized based on body weight prior to ascribing a test slot. Compounds of the present invention are administered daily by oral gavage to the castrated thirty two week old rats (body weight about 450-500 g) using a conventional vehicle such as 1% sodium carboxymethylcellulose (CMC)+0.25% Tween 80+0.05% AntiFoam® in sterile H2O. Sham operated rats treated with vehicle alone are used as a treatment positive controls whereas castrated rats treated only with vehicle are used as treatment negative control.
# Test animals are dosed daily over a two or eight week timeframe with, for example, 0.3, 1, 2, 3, or 6 mg/kg/day of a compound of the present invention. After the treatment period, animals are sacrificed and the wet weight of the Levator Ani (LA) muscle and the bulbocavernous muscle in each test group may determined and compared to the wet weight of the Levator Ani and the bulbocavernous muscle from the castrated, vehicle-only control group (after weighing, the bulbocavernous muscle may be flash frozen in liquid nitrogen for later use in measuring nitric oxide synthase mRNA, as described below) As an indicator of tissue selective activity, the wet weight of the prostate from test animals may be similarly compared to the wet weight of the prostate from the castrated, vehicle-only group.
# [4] = system: epithelial nitric oxide synthase (eNOS) mRNA; assay: eNOS mRNA by real-time quantitative PCR in corpus cavernosum tissue of treated castrated rats; format: in vivo, rat; settings: 2 mg/kg/day, two weeks
# Method: (§1) RNA is isolated from frozen bulbous and corpus cavernosum tissues that are obtained at necropsy from castrated Sprague Dawley rats that are prepared and dosed essentially as described above for the Model of Efficacy and Selectivity. cDNA is synthesized from 2 μg of RNA using a high capacity cDNA kit according to the manufacturer's instructions.
# (§2) Real-time quantitative PCR is then performed according to the fluorescent TaqMan® methodology (Applied Biosystems). Assays-on-Demand™ (Applied Biosystems) probes are used for the rat […] nitric oxide synthase transcript (eNOS) while probes are designed for the rat penile specific isoform of neuronal nitric oxide synthase (pnNOS) using probe designer software (Applied Biosystems). The probes are designed to span a 102 bp region of the rat neuronal nitric oxide synthase gene (pnNOS) that is specific to pnNOS (positions 2865-2967). MGB™ Primer sequences are 5′CCGGAACCCTTGCGTTT 3′ (SEQ ID NO:1) (forward) and 5′[…] 3′ (SEQ ID NO:2) (reverse) and the probe sequence is 5′CCCGTAAAGGGCCT 3′ (SEQ ID NO:3) (FAM NFQ). Assays-on-Demand™ probe sets for the PPIB transcript are used as an internal control. PCR is performed on an ABI Prism 7700 Sequence Detection System at the following thermocycler conditions: 2 min. at 50° C., 10 min. at 95° C., and 40 cycles at 95° C. for 30 s, and 60° C. for 1 min. All reactions are carried out in triplicate.
# [5] = system: penile nitric oxide synthase (pnNOS) mRNA; assay: pnNOS mRNA by real-time quantitative PCR in bulbocavernosum tissue of treated castrated rats; format: in vivo, rat; settings: eight weeks
# Method: as §1, §2
smiles,measurement,setting,value
"CC(C)OC(=O)N[C@H]1Cc2c(n(Cc3ccccc3O)c3ccc(C#N)cc23)C1 [Example 9, [(S)-7-Cyano-4-(2-hydroxy-benzyl)-1,2,3,4-tetrahydro-cyclopenta[b]indol-2-yl]-carbamic acid isopropyl ester]",EC50,[1],~0.3 nM
same,Ki,[2],~0.8 nM
"CC(C)OC(=O)N[C@H]1Cc2c(n(C[C@@H]3[C@@H](O)CCN3C)c3ccc(C#N)cc23)C1 [Example 2, [(S)-7-Cyano-4-((2R,3S)-3-hydroxy-1-methyl-pyrrolidin-2-ylmethyl)-1,2,3,4-tetrahydrocyclopenta[b]indol-2-yl]-carbamic acid isopropyl ester]",EC50,[1],~1 nM
same,mean LA wet weight,[3]; 0.3 mg/kg,about 0.137 g
same,mean bulbocavernous wet weight,[3]; 0.3 mg/kg,about 0.476 g
same,mean prostate wet weight,[3]; 0.3 mg/kg,about 72.4 mg
same,mean LA wet weight,[3]; 1.0 mg/kg,about 0.182 g
same,mean bulbocavernous wet weight,[3]; 1.0 mg/kg,about 0.582 g
same,mean prostate wet weight,[3]; 1.0 mg/kg,about 102.8 mg
same,mean LA wet weight,[3]; 3.0 mg/kg,about 0.205 g
same,mean bulbocavernous wet weight,[3]; 3.0 mg/kg,about 0.698 g
same,mean prostate wet weight,[3]; 3.0 mg/kg,about 147.4 mg
same,mean LA wet weight,[3]; 6.0 mg/kg,about 0.264 g
same,mean bulbocavernous wet weight,[3]; 6.0 mg/kg,about 0.955 g
same,mean prostate wet weight,[3]; 6.0 mg/kg,about 271.8 mg
same,Levator ani weight in comparison to the castrated control group,[3]; 0.3-6.0 mg/kg,dose dependent increase
same,bulbocavernous weight in comparison to the castrated control group,[3]; 0.3-6.0 mg/kg,dose dependent increase
same,eNOS expression,[4],about 159 % of control
same,pnNOS expression,[5]; 0.3 mg/kg,about 97 % of control
same,pnNOS expression,[5]; 1.0 mg/kg,about 93 % of control
same,pnNOS expression,[5]; 3.0 mg/kg,about 153 % of control
same,pnNOS expression,[5]; 6.0 mg/kg,about 248 % of control
same,penile nitric oxide synthase (pnNOS) mRNA,[5]; 0.3-6.0 mg/kg,dose dependent increase
same,Ki,[2],~11 nM
"CC(C)OC(=O)N[C@H]1Cc2c(n(C[C@@H]3N(C)CC[C@@]3(C)O)c3ccc(C#N)cc23)C1 (relative stereo) [Example 6, [(S)-7-Cyano-4-(trans-3-hydroxy-1-methyl-3-methyl-pyrrolidin-2-ylmethyl)-1,2,3,4-tetrahydro-cyclopenta[b]indol-2-yl]-carbamic acid isopropyl ester]",EC50,"[1]; mouse myoblast C2C12 cells transfected with human AR, no unit printed for these values, read-out: EC50 in the C2C12 AR/ARE reporter assay",~0.3 nM
"CC(C)OC(=O)N[C@H]1Cc2c(n(C[C@H]3NCC[C@@H]3O)c3ccc(C#N)cc23)C1 [Example 1, [(S)-7-Cyano-4-((2R,3S)-3-hydroxy-pyrrolidin-2-ylmethyl)-1,2,3,4-tetrahydrocyclopenta[b]indol-2-yl]-carbamic acid isopropyl ester]",EC50,[1],~20 nM
same,Ki,[2],~51 nM
